From patent US8759366B2, “Aminopyrimidines as SYK inhibitors” (Merck Sharp & Dohme Corp., priority 2009, dated 2014)

The molecules below were run against rhSYK (Homo sapiens (Human), UniProt P43405). Settings: read-out: rhSYK activity.
In the case of `CCOC(=O)C1CCC(O)(c2ncc(-c3cc(C)cc(Nc4nccc(C(F)(F)F)n4)c3)s2)CC1` (mixture of isomers) [Example 32, ethyl 4-hydroxy-4-[5-(3-methyl-5-{[4-(trifluoromethyl)pyrimidin-2-yl]amino}phenyl)-1,3-thiazol-2-yl]cyclohexanecarboxylate], the IC50 is reported as less than 100 nM. Molecule `CC(O)(CO)c1ncc(-c2cccc(Nc3nccc(C(F)(F)F)n3)c2)s1` (single isomer, unassigned) [Ex 5-2] has an IC50 of less than 100 nM. Molecule `CC(O)(CO)c1ncc(-c2cccc(Nc3nccc(C(F)(F)F)n3)c2)s1` (single isomer, unassigned) [Ex 5-3] has an IC50 of less than 100 nM. With `Cc1cc(Nc2nccc(C(F)(F)F)n2)cc(-c2cnc(C(C)(O)c3ccc(CC(=O)O)cc3)s2)c1` (single isomer, unassigned) [Example 4A-59] the IC50 was 100 to 1000 nM. For `Cc1cc(Nc2nccc(C)n2)cc(-c2cnc(C3(O)CCC(C)(CC(=O)O)CC3)s2)c1` (single isomer, unassigned) [Example 4C-11], the IC50 was less than 100 nM. `Cc1cc(Nc2nccc(C)n2)cc(-c2cnc(C3(O)CCC(C)(CC(=O)O)CC3)s2)c1` (single isomer, unassigned) [Example 4C-12] was tested, and the IC50 was less than 100 nM. `Cc1cc(Nc2nccc(C(F)(F)F)n2)cc(-c2cnc(C(O)C(F)(F)F)s2)c1` (single isomer, unassigned) [Example 6-3] gave an IC50 of less than 100 nM. For `Cc1cc(Nc2nccc(C(F)(F)F)n2)cc(-c2cnc(C(O)C(F)(F)F)s2)c1` (single isomer, unassigned) [Example 6-4], the IC50 was less than 100 nM. With `CCNC(=O)Nc1cc(Nc2nccc(C(F)(F)F)n2)cc(-c2cnc(C3CCC(C(N)=O)CC3)s2)c1` (single isomer, unassigned) [Example 20(2), 4-[5-(3-[(ethylcarbamoyl)amino]-5-{[4-(trifluoromethyl)pyrimidin-2-yl]amino}phenyl)-1,3-thiazol-2-yl]cyclohexanecarboxamide] the IC50 was less than 100 nM. With `CC(=O)N1CCC(O)(c2ncc(-c3cccc(Nc4nccc(C(F)(F)F)n4)c3)s2)CC1` [4D-1] the IC50 was less than 100 nM. In the case of `OC1(c2ncc(-c3cccc(Nc4nccc(C(F)(F)F)n4)c3)s2)CCN(c2ccc(F)cc2)C1` (stereo not drawn) [4D-2], the IC50 is reported as 1000 to 10000 nM. `OC1(c2ncc(-c3cccc(Nc4nccc(C(F)(F)F)n4)c3)s2)CCN(C2CC2)CC1` [4D-3] showed an IC50 of less than 100 nM. In the case of `CCOC(=O)N1CCC(O)(c2ncc(-c3cccc(Nc4nccc(C(F)(F)F)n4)c3)s2)CC1` [4D-4], the IC50 is reported as less than 100 nM. Work on `CC(C)N1CCC(O)(c2ncc(-c3cccc(Nc4nccc(C(F)(F)F)n4)c3)s2)CC1` [4D-5] yielded an IC50 of 100 to 1000 nM. `Cc1cc(Nc2nccc(C)n2)cc(-c2cnc(C3(O)CCNC(=O)CC3)s2)c1` (stereo not drawn) [4D-7] showed an IC50 of less than 100 nM. For `Cc1cc(Nc2nccc(C(F)(F)F)n2)cc(-c2cnc(C3(O)CCN(C4CC4)CC3)s2)c1` [4D-8], the IC50 was less than 100 nM. `Cc1cc(Nc2nccc(C(F)(F)F)n2)cc(-c2cnc(C3(O)CCN(c4ccccc4C)CC3)s2)c1` [4D-9] was tested, and the IC50 was 100 to 1000 nM. In the case of `Cc1cc(Nc2nccc(C(F)(F)F)n2)cc(-c2cnc(C3(O)CCN(c4cccc(F)c4)CC3)s2)c1` [4D-10], the IC50 is reported as 100 to 1000 nM. `Cc1cc(Nc2nccc(C(F)(F)F)n2)cc(-c2cnc(C3(O)CCN(c4ccccc4F)CC3)s2)c1` [4D-11] gave an IC50 of 100 to 1000 nM. Molecule `Cc1cc(Nc2nccc(C(F)(F)F)n2)cc(-c2cnc(C3(O)CCN(c4ccc(F)cc4)CC3)s2)c1` [4D-12] has an IC50 of less than 100 nM. For `Cc1cc(Nc2nccc(C(F)(F)F)n2)cc(-c2cnc(C3(O)CCN(C(=O)CCCC(=O)O)CC3)s2)c1` [4D-13], the IC50 was less than 100 nM. Work on `COC(=O)C1CC(O)(c2ncc(-c3cc(C)cc(Nc4nccc(C(F)(F)F)n4)c3)s2)CCN1C(=O)OC(C)(C)C` (stereo not drawn) [4D-14] yielded an IC50 of 100 to 1000 nM. In the case of `Cc1cc(Nc2nccc(C(F)(F)F)n2)cc(-c2cnc(C3(O)CCN(C(=O)OC(C)(C)C)C(C(F)(F)F)C3)s2)c1` (stereo not drawn) [4D-15], the IC50 is reported as 100 to 1000 nM. For `Cc1cc(Nc2nccc(C(F)(F)F)n2)cc(-c2cnc(C3(C#N)CCC4(CC3)OCCO4)s2)c1` [8-[5-(3-methyl-5-{[4-(trifluoromethyl)pyrimidin-2-yl]amino}phenyl)-1,3-thiazol-2-yl]-1,4-dioxaspiro[4.5]decane-8-carbonitrile], the IC50 was less than 100 nM.
